How the values were obtained:
[1] = system: allogene Hauttransplantate; format: in vivo, Ratte; settings: for Wirksamkeit im Hauttransplantat-Modell (immunsuppressive Aktivität): qualitative statement; for Toxizität / Unverträglichkeit der behandelten Tiere: skin graft model, Tab. I, Azathioprin in äquipotenter Dosis
From the text: Die mit einer Stanze gewonnenen und vom Panniculus carnosus (einer Fett- und Muskelschicht) präparativ befreiten Transplantate werden in ebenfalls ausgestanzte Transplantatbetten des Empfängertiers plaziert. Die Transplantate werden mit speziellem Verbandmaterial bedeckt und mit einer Bandage fixiert. Endpunkt der Untersuchung ist der Tag, an dem 50 % der Tiere beide Transplantate vollständig abgestoßen haben. Die immunsuppressive Aktivität eines Wirkstoffs wird anhand der Verlängerung des normalen Transplantatüberlebens (Tage) der nicht behandelten Kontrolltiere bestimmt.

boviner Endothelzellen = assay: In vitro migration/motility of endothelial cells under angiogenic stimulus (modified Boyden chamber); format: cell-based, bovine; settings: for Anzahl der migrierten Zellen Kollagen-Fibronektin-Filter / Anzahl der migrierten Zellen Kollagen-Filter: Präinkubation + (Gangliosid-Mischung), innerhalb 8 Stunden, Mittelwert (± Standardabweichung) von 3 Versuchen
From the text: Es wurde daher eine Untersuchung mit Cefradin als Modellsubstanz auf eine die Gefäßbildung hemmende Aktivität in einem hierzu geeigneten in vitro Model durchgeführt (s. Tab. II). In diesem Test wird der Einfluß auf die Motilität boviner Endothelzellen unter angiogenem (gefäßbildendem) Stimulus bestimmt.

[2] = cited from earlier work

| Structure (SMILES) | Ausbildung der Gefäßverbindung zwischen Transplantatbett und Transplantat ([1]; höchste Cefradin Dosis, in controls established by about the 5th postoperative day) | Wirksamkeit im Hauttransplantat-Modell (immunsuppressive Aktivität) [1] | Toxizität / Unverträglichkeit der behandelten Tiere [1] | Anzahl der migrierten Zellen Kollagen-Fibronektin-Filter (boviner Endothelzellen; Cefradin 10 µg/ml Medium) | Anzahl der migrierten Zellen Kollagen-Filter (boviner Endothelzellen; Cefradin 10 µg/ml Medium) | Anzahl der migrierten Zellen Kollagen-Fibronektin-Filter (boviner Endothelzellen; Cefradin 100 µg/ml Medium) | Anzahl der migrierten Zellen Kollagen-Filter (boviner Endothelzellen; Cefradin 100 µg/ml Medium) | Anzahl der migrierten Zellen Kollagen-Fibronektin-Filter (boviner Endothelzellen; Cefradin 1000 µg/ml Medium) | Anzahl der migrierten Zellen Kollagen-Filter (boviner Endothelzellen; Cefradin 1000 µg/ml Medium) | Aktivität auf die Motilität boviner Endothelzellen (boviner Endothelzellen; concentration range corresponding to the low, already immunosuppressive in vivo doses) | Inhibition der Endothelmotilität (boviner Endothelzellen; in hoher, bereits zytotoxischer Konzentration) | Nierentoxizität ([2]; im Tierversuch, länger dauernde hochdosierte Anwendung) | leukopenische Wirkung ([2]; in vivo) |
| --- | --- | --- | --- | --- | --- | --- | --- | --- | --- | --- | --- | --- | --- |
| CC1=C(C(=O)O)N2C(=O)C(NC(=O)C(N)C3=CCC=CC3)C2SC1 (stereo not drawn) [Cefradin] | unterdrückte | außerordentlich wirksam | keinerlei Unverträglichkeit | 306 ± 74 | 173 ± 29 | 256 ± 24 | 104 ± 3 | 51 ± 6 | 23 ± 8 | nur geringfügige, wenn auch dosisabhängige Aktivität | komplette Inhibition | keine Nierentoxizität | nicht leukopenisch |
| Cn1cnc([N+](=O)[O-])c1Sc1ncnc2nc[nH]c12 [Azathioprin, 6[(1-Methylnitroimidazol-5-yl)thio]purin] |  |  | ausgeprägt toxisch |  |  |  |  |  |  |  |  |  |  |
| CC1=C(C(=O)O)N2C(=O)[C@@H](NC(=O)[C@H](N)c3ccc(O)cc3)[C@H]2SC1 [Cefadroxil] |  | Unwirksamkeit |  |  |  |  |  |  |  |  |  |  |  |
